The target of the first experiment is T1, OR7C1 (Homo sapiens, UniProt O76099).
T1 construct: transfected with a plasmid containing the CRE-luciferase and a plasmid containing the olfactory receptor; expressed in transfected cells; host or cells: HEK293T-RTP1A1/RTP2 (HEK293T stably expressing the chaperones RTP1A1 and RTP2)
T1 sequence (O76099 1-320): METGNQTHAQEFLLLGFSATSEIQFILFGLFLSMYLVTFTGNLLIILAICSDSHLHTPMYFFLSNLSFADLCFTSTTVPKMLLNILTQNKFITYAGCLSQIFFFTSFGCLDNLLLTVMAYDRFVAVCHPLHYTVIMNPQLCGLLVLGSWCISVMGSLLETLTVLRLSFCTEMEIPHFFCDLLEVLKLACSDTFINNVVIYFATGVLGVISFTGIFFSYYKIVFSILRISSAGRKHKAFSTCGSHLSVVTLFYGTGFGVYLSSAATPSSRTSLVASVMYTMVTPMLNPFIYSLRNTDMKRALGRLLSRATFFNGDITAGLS
Briefly: Luciferase-based CRE gene reporter assay, dose-response on OR7C1. Format: cell-based. The following applies: negative logarithm of the EC50 in Moles; semi-logarithmic dilutions from 1 mM to 316 nM on OR7C1. As to the method: HEK293T-RTP1A1/RTP2 cells were maintained in minimal essential medium (EMEM, Lonza) containing 10% fetal bovine serum (M10). These cells were generated by transfecting HEK293T (Thermofisher Scientific, cat ref: R70007) with an expression vector containing the sequences of the chaperone proteins RTP1A1 and RTP2 and a resistance gene to puromycin, using Lipofectamine 2000. The recombinant cell population, used in these experiments, was selected by adding 10 μg/ml of puromycin into the culture medium and subsequently subcloned (WO 2014/191047 A1).
Potential OR7C1 agonists were diluted at a concentration of 1 mole/liter (M) into an organic solvent such as Dimethyl Sulfoxide (DMSO) or Ethanol to generate stock solutions. […]
For concentration-response analysis, serial dilutions of the tested molecules were prepared from stock solutions in EMEM plated into 96-well plates.
For the dose-response analysis, a Luciferase-based gene reporter assay (Promega, Leiden, the Netherlands) was used. Briefly, cells were platted on poly-D-lysine-coated 96-well plates and transfected with a plasmid containing the CRE-luciferase and a plasmid containing the olfactory receptor. Sixteen hours after transfection, the culture medium was replaced by serum-free EMEM containing the tested compounds at a determined concentration. After four hours of incubation at 37° C., cells were lysed and processed for luminescence measurement. Luminescence emission was recorded. Results were expressed as luciferase activity ([…] (RLU)) or as percentage of the response induced by 10 μM of the adenylate cyclase activator Forskolin. An empty plasmid is used as negative control.
Dose-response analyses using the luciferase-based reporter assay were performed using semi-logarithmic serial dilutions of the compounds, from 1 mM to 316 nM, on OR7C1. 46 compounds were tested in concentration-response analyses. In each experiment, an empty vector (pEFIBRHO) was used as negative control. Values are given as the negative logarithm of the EC50 in Moles.
With “2-(2,2,7,7-Tetramethyl-5-tricyclo[6.2.1.01,6]undec-4-enyl)butan-1-ol [Compound 28]”, the “-LogEC50 (average n > 3)” value is recorded as 6.6.
Still for that read-out and setting: under “5-(1-Methoxybutan-2-yl)-2,2,7,7-tetramethyltricyclo[6.2.1.01,6]undec-5-ene [Compound 29]” stands 5.2; under Hydroxyambran [Compound 41], 5.5.

The same experiment, now with this note: negative logarithm of the EC50 in Moles; semi-logarithmic dilutions from 1 mM to 316 nM on OR7C1; read-out: -LogEC50 (average n > 3) (converted).
Consider `CCCC(O)COC1C(C)CCCC1(C)C` (mixture of isomers) [Compound 14, 1-((2,2,6-trimethylcyclohexyl)oxy)pentan-2-ol], for which the EC50 was 126 µM.
As to `CCC(O)COC1C(C)CCCC1(C)C` (mixture of isomers) [Compound 15, 1-((2,2,6-trimethylcyclohexyl)oxy)butan-2-ol], the EC50 was 126 µM.
On the same count and under the same terms, for `CC1(C)/C(=C\CO)C2CCC1C2` (racemic) [Compound 8, DL-Patchenol] the value was 31.6 µM.
Same read-out and setting: for `CCC1OC2CC(C)(C)[C@@]34CC[C@@H](C3)C(C)(C)C4C2O1` (stereo in doubt) [Compound 20, 6-Ethyl-2,2,10,10-tetramethyl-5,7-dioxatetracyclo[9.2.1.01,9.04,8]tetradecane] the value was 12.6 µM; for `CC1OC2CC(C)(C)[C@@]34CC[C@@H](C3)C(C)(C)C4C2O1` (stereo in doubt) [Compound 23, 2,2,6,10,10-Pentamethyl-5,7-dioxatetracyclo[9.2.1.01,9.04,8]tetradecane], 5.01 µM; for `CC1(C)C2C3OCOC3CC(C)(C)[C@]23CC[C@H]1C3` (stereo in doubt) [Compound 24, 2,2,10,10-Tetramethyl-5,7-dioxatetracyclo[9.2.1.01,9.04,8]tetradecane], 10 µM.
On to `COC[C@@H](C)C1=C2C(C)(C)[C@H]3CC[C@@]2(C3)C(C)(C)CC1` (stereo in doubt) [Compound 26, 5-(1-Methoxypropan-2-yl)-2,2,7,7-tetramethyltricyclo[6.2.1.01,6]undec-5-ene], for which the EC50 is 2.51 µM.
On the same count and under the same terms, under `CC1(C)CCC[C@]2(C)C[C@]3(CCC12)CO3` (stereo in doubt) [Compound 38, 4,4,8a-Trimethylspiro[2,3,4a,5,6,8-hexahydro-1H-naphthalene-7,2′-oxirane]] stands 50.1 µM.
Same read-out and setting: for `CCCC(O)CCC1C(C)CCCC1(C)C` (centres unmarked) [Compound 1, Norlimbanol] the value was 3.98 µM; for `CCC(O)COC1CCCCC1C(C)(C)C` (centres unmarked) [Compound 2, Ambercore], 12.6 µM.
On the same count and under the same terms, for `CCC12CCC3C(C)(C)CCCC3(C)C1COC2` (centres unmarked) [Compound 3, Grisalva] the value was 25.1 µM; for `CCCC(O)COC1C2(C)CCC(C2)C1(C)C` (centres unmarked) [Compound 5, 1-((1,3,3-trimethylbicyclo[2.2.1]heptan-2-yl)oxy)pentan-2-ol], 50.1 µM; for `CCCC(=O)COC1C2(C)CCC(C2)C1(C)C` (centres unmarked) [Compound 6, 1-((1,3,3-trimethylbicyclo[2.2.1]heptan-2-yl)oxy)pentan-2-one], 50.1 µM.
Turning to `CCC(O)COC1C2(C)CCC(C2)C1(C)C` (centres unmarked) [Compound 7, 1-((1,3,3-trimethylbicyclo[2.2.1]heptan-2-yl)oxy)butan-2-ol], the EC50 was 50.1 µM.
On the same count and under the same terms, for `CC(C)[C@H]1OCC[C@]2(CC3CC[C@]2(C)C3(C)C)O1` [Compound 9, Belambre] the value was 1.58 µM.
The same measure, in the same setting: for `CC1OC[C@H](C)C2(CC3CCC2(C)C3(C)C)O1` (stereo partly drawn) [Compound 10, 1′,2,5(S),7′,7′-Pentamethyl-spiro[1,3-dioxane-4,2′-bicyclo[2.2.1]heptane]] the value was 2.51 µM; for `CC1OCC(C)C2(CC3CCC2(C)C3(C)C)O1` (centres unmarked) [Compound 11, 1′,2,5,7′,7′-Pentamethylspiro[1,3-dioxane-4,2′-bicyclo[2.2.1]heptane]], 2 µM.
Still for that read-out and setting: for `CC1CCC2C(C2(C)C)C12COC(C)(C)OC2` (centres unmarked) [Compound 12, Spirambrene] the value was 12.6 µM; for `CC(C)[C@]12C[C@@H]3OC(C)(C)O[C@]3(C)[C@H](C1)C(C)(C)C2` [Compound 13, 2,4,4,10,10-Pentamethyl-8-propan-2-yl-3,5-dioxatricyclo[6.2.1.02,6]undecane], 0.398 µM.
Turning to `CC1(C)CCC[C@]2(C)[C@H]3CCO[C@]3(C)CC[C@@H]12` [Compound 18, Ambroxan or (−)-Ambroxide], the EC50 was 31.6 µM.
Same read-out and setting: under `CC(=O)OCC1CCC(C)(C)C23CC4C[C@H]2C13C4(C)C` (some centres unmarked) [Compound 19, Amboryl acetate] stands 63.1 µM.
As for `CC(C=O)C1=C2C(C)(C)[C@H]3CC[C@@]2(C3)C(C)(C)CC1` (some centres unmarked) [Compound 21, 5-(1-Oxopropan-2-yl)isolongifol-5-ene], the EC50 was 0.501 µM.
On the same count and under the same terms, under `CC(O)C(C)C1=C2C(C)(C)[C@H]3CC[C@@]2(C3)C(C)(C)CC1` (some centres unmarked) [Compound 22, 5-(3-Hydroxybutan-2-yl)isolongifol-5-ene] stands 1.58 µM.
On the same count and under the same terms, for `CCC(CO)C1=C2C(C)(C)[C@H]3CC[C@@]2(C3)C(C)(C)CC1` (some centres unmarked) [Compound 27, 5-(1-Hydroxybutan-2-yl)isolongifol-5-ene] the value was 3.16 µM; for `CCC(COC)C1=C2C(C)(C)[C@H]3CC[C@@]2(C3)C(C)(C)CC1` (some centres unmarked) [Compound 30, 5-(1-Methoxybutan-2-yl)isolongifol-5-ene], 2.51 µM.
The same measure, in the same setting: under `CCC(COC)C1=CCC(C)(C)[C@@]23CC[C@@H](C2)C(C)(C)C13` (some centres unmarked) [Compound 31, 5-(1-methoxybutan-2-yl)isolongifol-4-ene] stands 3.98 µM.
With `CC1(C)C2C(=O)CCC(C)(C)[C@]23CC[C@H]1C3` (stereo partly drawn) [Compound 32, (1S,8S)-2,2,7,7-Tetramethyltricyclo[6.2.1.01,6]undecan-5-one], the EC50 was 20 µM.
Same read-out and setting: under `CC(=O)C1(C)CC2=C(CCCC2(C)C)CC1C` (centres unmarked) [Compound 34, Sylvamber] stands 25.1 µM; under `CC1O[C@@]12CC[C@H]1C(C)(C)CCC[C@]1(C)[C@H]2C` (some centres unmarked) [Compound 35, 3′,4,4,8,8a-Pentamethylspiro[2,3,4a,5,6,8-hexahydro-1H-naphthalene-7,2′-oxirane]], 31.6 µM.
Still for that read-out and setting: under `CC1O[C@@]12CC[C@H]1C(C)(C)CCC[C@]1(C)C2` (some centres unmarked) [Compound 36, 3′,4,4,8a-Tetramethylspiro[2,3,4a,5,6,8-hexahydro-1H-naphthalene-7,2′-oxirane]] stands 20 µM; under `C[C@H]1[C@]2(CCC3C(C)(C)CCC[C@@]31C)CO2` (some centres unmarked) [Compound 37, 4,4,8,8a-Tetramethylspiro[2,3,4a,5,6,8-hexahydro-1H-naphthalene-7,2′-oxirane]], 501 µM; under `CC(CO)C1CCC(C)(C)[C@@]23CC[C@@H](C2)C(C)(C)C13` (some centres unmarked) [Compound 39, 5-(1-Hydroxypropan-2-yl)isolongifolane], 1.58 µM.
Take `CCOCOC1CCCCCCCCCCC1` [Compound 40, Boisambrene]: the EC50 is 50.1 µM.
Still for that read-out and setting: under `CC(=O)C1CC/C(C)=C\CC/C(C)=C\C/C=C\1C` (centres unmarked) [Compound 42, Cyclisone/Trimofix] stands 20 µM.
The same measure, in the same setting: under `CC1(C)C/C=C\CC/C=C\CCC2OC21C` (centres unmarked) [Compound 43, Cedroxyde] stands 2 µM.
As to `C/C1=C/CCC2(C)OC2CC/C(C)=C\CC1` (centres unmarked) [Compound 44, (E)-woody epoxide], the EC50 is 7.94 µM.
Same read-out and setting: under `C[C@]12CCC(=O)C[C@@H]1CC[C@@H]1[C@@H]2CC[C@]2(C)C=CC[C@@H]12` [Compound 45, 5α-Androst-16-en-3-one] stands 20 µM; under `C[C@@]12C=CCC1C1CC=C3C[C@@H](O)CC[C@]3(C)C1CC2` (some centres unmarked) [Compound 46, Androstadienol], 12.6 µM.
